Experimental data: ChEMBL document CHEMBL1130447, “Two-ring DNA minor-groove binders consisting of readily available, di-substituted benzene derivatives” (Bioorg Med Chem Lett, 1997)
Values belong to the molecule of their own block, whether it stands above or below them.

How the values were obtained:
Format in all cases: nucleic-acid assay
Nucleic Acid [1] = experiment: The compound was tested for its binding affinity to Poly (dA-dT) by using ethidium displacement assay
Nucleic Acid [2] = experiment: The compound was tested for its binding affinity to Poly (dG-dC) by using ethidium displacement assay
Nucleic Acid [3] = experiment: The compound was tested for its binding affinity to calf thymus DNA by using ethidium displacement assay; conditions: Bos taurus
Nucleic Acid [4] = experiment: The compound was tested for its binding affinity to T4 ethidium displacement assay

SMILES: N=C(N)c1ccc(/N=N/Nc2ccc(C(=N)N)cc2)cc1
- C50 (Nucleic Acid [1]): 0.9 µM
- C50 (Nucleic Acid [2]): 5.7 µM

SMILES: CN(C)CCCNC(=O)Nc1cccc(NC(=O)c2ccc(C(=O)NCCCN(C)C)cc2)c1
- C50 (Nucleic Acid [1]): 4.2 µM
- C50 (Nucleic Acid [3]): 43.5 µM
- C50 (Nucleic Acid [2]): 222 µM
- C50 (Nucleic Acid [4]): 28.6 µM

SMILES: C[n+]1ccc(Nc2ccc(NC(=O)c3ccc(Nc4cc[n+](C)c5ccccc45)cc3)cc2)cc1
- C50 (Nucleic Acid [1]): 0.17 µM
- C50 (Nucleic Acid [2]): 2.8 µM

SMILES: CN1CCN(c2ccc3[nH]c(-c4ccc5[nH]c(-c6ccc(O)cc6)nc5c4)nc3c2)CC1
- C50 (Nucleic Acid [1]): 0.2 µM
- C50 (Nucleic Acid [2]): 1.4 µM

Further lines, results first:

- C50 (Nucleic Acid [1]): 23.5 µM
- C50 (Nucleic Acid [3]): 44.8 µM
- C50 (Nucleic Acid [2]): 77.3 µM
- C50 (Nucleic Acid [4]): 35.2 µM
SMILES: CN(C)CCCNC(=O)Nc1ccc(NC(=O)c2ccc(C(=O)NCCCN(C)C)cc2)cc1

- C50 (Nucleic Acid [1]): 28.4 µM
- C50 (Nucleic Acid [3]): 47.3 µM
- C50 (Nucleic Acid [2]): 55.6 µM
- C50 (Nucleic Acid [4]): 35.6 µM
SMILES: CN(C)CCCNC(=O)c1cccc(C(=O)Nc2ccc(NC(=O)CCCN(C)C)cc2)c1

- C50 (Nucleic Acid [1]): 1.9 µM
- C50 (Nucleic Acid [3]): 31.9 µM
- C50 (Nucleic Acid [2]): 142 µM
- C50 (Nucleic Acid [4]): 27.1 µM
SMILES: CN(C)CCCNC(=O)c1ccc(C(=O)Nc2cccc(NC(=O)CCCN(C)C)c2)cc1
